How the values were obtained:
[1] = system: SNF-related serine/threonine-protein kinase (Homo sapiens), Q9NRH2 [UNDEFINED MUTATION]; assay: Inhibition of human SNRK E97G/P116A mutant (65 to 409 residues) assessed as residual activity at 10 uM using KKLRRTLSFAEPG as substrate incubated for 40 mins in presence of [gamma33P]ATP by scintillation counting based radiometry assay relative to control
[2] = molecular target: Calcium/calmodulin-dependent protein kinase type II subunit alpha (Homo sapiens) (UniProt Q9UQM7); assay: Inhibition of recombinant full length human CaMK2alpha assessed as residual activity at 10 uM using KKLNRTLSFAEPG as substrate incubated for 40 mins in presence of [gamma-33ATP] by scintillation counting based radiometry assay relative to control
[3] = molecular target: Activated CDC42 kinase 1 (Homo sapiens) (UniProt Q07912); assay: Inhibition of human ACK1 (1 to 389 residues) assessed as residual activity at 10 uM using EFPIYDFLPAKKK as substrate incubated for 40 mins in presence of [gamma-33ATP] by scintillation counting based radiometry assay relative to control
[4] = molecular target: Mitogen-activated protein kinase 1 (Homo sapiens) (UniProt P28482); assay: Inhibition of recombinant full length human MAPK1 assessed as residual activity at 10 uM using myelin basic protein as substrate incubated for 40 mins in presence of [gamma-33ATP by scintillation counting based radiometry assay relative to control
[5] = molecular target: Tyrosine-protein kinase ABL1 (Homo sapiens) (UniProt P00519); assay: Inhibition of human ABL1 (27 to end residues) at 10 uM using EAIYAAPFAKKK as substrate incubated for 40 mins in presence of [gamma-33ATP] by scintillation counting based radiometry assay relative to control; parameters: scale not given: the % may be the effect or the level left
Sequence of Tyrosine-protein kinase ABL1 (Homo sapiens) (P00519 whole entry): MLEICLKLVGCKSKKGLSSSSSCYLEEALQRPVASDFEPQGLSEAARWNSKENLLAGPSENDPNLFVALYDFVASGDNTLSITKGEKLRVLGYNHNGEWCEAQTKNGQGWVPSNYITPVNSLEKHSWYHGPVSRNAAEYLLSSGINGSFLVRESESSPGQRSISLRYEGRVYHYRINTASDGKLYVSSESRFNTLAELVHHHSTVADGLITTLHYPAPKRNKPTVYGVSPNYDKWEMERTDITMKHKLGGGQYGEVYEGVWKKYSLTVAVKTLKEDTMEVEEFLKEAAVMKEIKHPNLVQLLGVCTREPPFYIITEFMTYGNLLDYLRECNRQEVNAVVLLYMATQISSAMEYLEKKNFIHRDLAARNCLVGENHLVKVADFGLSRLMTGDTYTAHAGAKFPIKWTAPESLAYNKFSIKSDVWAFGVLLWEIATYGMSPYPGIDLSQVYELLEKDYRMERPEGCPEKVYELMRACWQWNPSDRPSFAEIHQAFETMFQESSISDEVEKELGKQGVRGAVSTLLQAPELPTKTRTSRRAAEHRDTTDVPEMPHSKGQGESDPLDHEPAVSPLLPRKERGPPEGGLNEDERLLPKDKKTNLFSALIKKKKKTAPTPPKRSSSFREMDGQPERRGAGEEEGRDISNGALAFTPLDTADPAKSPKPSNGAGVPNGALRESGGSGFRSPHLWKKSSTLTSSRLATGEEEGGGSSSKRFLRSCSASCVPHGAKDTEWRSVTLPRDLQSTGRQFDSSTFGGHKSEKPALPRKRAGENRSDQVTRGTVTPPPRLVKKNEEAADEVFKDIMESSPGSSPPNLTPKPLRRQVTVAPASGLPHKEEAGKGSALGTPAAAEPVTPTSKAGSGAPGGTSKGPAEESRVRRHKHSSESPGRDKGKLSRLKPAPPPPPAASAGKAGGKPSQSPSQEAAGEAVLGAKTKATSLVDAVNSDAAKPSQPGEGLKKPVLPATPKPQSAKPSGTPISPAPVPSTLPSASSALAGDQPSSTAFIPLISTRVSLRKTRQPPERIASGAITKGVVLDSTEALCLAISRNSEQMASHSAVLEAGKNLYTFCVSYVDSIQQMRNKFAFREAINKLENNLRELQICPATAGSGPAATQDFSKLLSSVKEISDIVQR

[6] = system: Hepatocyte growth factor receptor (Homo sapiens), P08581 [D1228N]; assay: Inhibition of recombinant human MET A1209G/V1290L/D1246N mutant (974 to end residues) assessed as residual activity at 10 uM using KKKGQEEEYVFIE as substrate incubated for 40 mins in presence of [gamma-33ATP by scintillation counting based radiometry assay relative to control
[7] = species: Homo sapiens; assay: Inhibition of recombinant full length human PKBalpha S478G mutant assessed as residual activity at 10 uM using GRPRTSSFAEGKK as substrate incubated for 40 mins in presence of [gamma33P]ATP by scintillation counting based radiometry assay relative to control
[8] = molecular target: MAP/microtubule affinity-regulating kinase 3 (Homo sapiens) (UniProt P27448); assay: Inhibition of recombinant full length human MARK3 assessed as residual activity at 10 uM using KKKVSRSGLYRSPSMPENLNRPR as substrate incubated for 40 mins in presence of [gamma-33ATP by scintillation counting based radiometry assay relative to control
[9] = system: Serine/threonine-protein kinase N1 (Homo sapiens), Q16512 [V901I]; assay: Inhibition of recombinant human PRK1 V901I mutant (498 to end residues) assessed as residual activity at 10 uM using KKLNRTLSFAEPG as substrate incubated for 40 mins in presence of [gamma33P]ATP by scintillation counting based radiometry assay relative to control
[10] = molecular target: CDK4/Cyclin D3 (Homo sapiens) (UniProt P11802+P30281); assay: Inhibition of recombinant full length human CDK4/CyclinD3 assessed as residual activity at 10 uM using Rb fragment as substrate incubated for 40 mins in presence of [gamma-33ATP] by scintillation counting based radiometry assay relative to control; type: protein-complex assay
[11] = molecular target: Vascular endothelial growth factor receptor 2 (Homo sapiens) (UniProt P35968); assay: Inhibition of human KDR (790 to end residues) assessed as residual activity at 10 uM using myelin basic protein as substrate after 40 mins by [gamma-33ATP] radiometric assay relative to control
[12] = molecular target: Casein kinase II subunit alpha' (Homo sapiens) (UniProt P19784); assay: Inhibition of recombinant full length human CK2alpha2 assessed as residual activity at 10 uM using RRRDDDSDDD as substrate incubated 40 mins in presence of [gamma-33ATP] by scintillation counting based radiometry assay relative to control
[13] = molecular target: STE20-like serine/threonine-protein kinase (Homo sapiens) (UniProt Q9H2G2); assay: Inhibition of recombinant human SLK (1 to 373 residues) assessed as residual activity at 10 uM using RLGRDKYKTLRQIRQ as substrate incubated for 40 mins in presence of [gamma33P]ATP by scintillation counting based radiometry assay relative to control
Sequence of STE20-like serine/threonine-protein kinase (Homo sapiens) (Q9H2G2 whole entry, looked up, the tested form may be a part): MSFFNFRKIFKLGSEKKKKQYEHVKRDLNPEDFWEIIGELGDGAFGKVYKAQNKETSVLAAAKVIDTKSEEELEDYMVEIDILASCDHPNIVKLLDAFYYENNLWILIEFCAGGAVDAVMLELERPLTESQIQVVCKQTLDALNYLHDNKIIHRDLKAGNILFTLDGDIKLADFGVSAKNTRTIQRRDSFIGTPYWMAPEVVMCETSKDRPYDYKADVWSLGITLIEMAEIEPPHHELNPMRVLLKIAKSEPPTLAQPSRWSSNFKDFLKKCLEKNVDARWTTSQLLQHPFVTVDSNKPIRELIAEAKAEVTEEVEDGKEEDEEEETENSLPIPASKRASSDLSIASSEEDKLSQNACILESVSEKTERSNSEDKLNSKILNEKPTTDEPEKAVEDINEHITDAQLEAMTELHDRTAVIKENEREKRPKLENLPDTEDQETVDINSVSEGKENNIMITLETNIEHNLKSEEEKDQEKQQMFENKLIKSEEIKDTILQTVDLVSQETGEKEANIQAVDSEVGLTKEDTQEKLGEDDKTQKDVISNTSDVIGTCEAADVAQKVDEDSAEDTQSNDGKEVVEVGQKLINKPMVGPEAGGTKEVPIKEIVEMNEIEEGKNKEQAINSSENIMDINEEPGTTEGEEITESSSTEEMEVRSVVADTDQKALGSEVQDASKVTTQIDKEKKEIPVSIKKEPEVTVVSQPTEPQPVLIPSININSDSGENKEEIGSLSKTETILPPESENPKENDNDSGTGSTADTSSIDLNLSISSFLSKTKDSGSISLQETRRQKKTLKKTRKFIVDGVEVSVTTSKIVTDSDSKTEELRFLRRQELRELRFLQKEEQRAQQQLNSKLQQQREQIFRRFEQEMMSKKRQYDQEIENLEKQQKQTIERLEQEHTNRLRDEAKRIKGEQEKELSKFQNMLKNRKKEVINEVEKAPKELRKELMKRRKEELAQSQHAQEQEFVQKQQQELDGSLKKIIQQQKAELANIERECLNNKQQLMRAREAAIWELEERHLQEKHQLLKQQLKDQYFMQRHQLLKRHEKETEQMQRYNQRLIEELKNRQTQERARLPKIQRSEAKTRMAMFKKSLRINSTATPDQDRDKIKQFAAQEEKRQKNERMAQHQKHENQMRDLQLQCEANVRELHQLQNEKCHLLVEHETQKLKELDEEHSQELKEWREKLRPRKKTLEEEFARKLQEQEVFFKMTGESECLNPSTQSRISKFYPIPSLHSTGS

[14] = molecular target: Ephrin type-A receptor 5 (Homo sapiens) (UniProt P54756); assay: Inhibition of recombinant human EphA5 (655to 956 residues) assessed as residual activity at 10 uM using poly(Glu, Tyr) 4:1 as substrate at 40 mins in presence of [gamma-33ATP] by scintillation counting based radiometry assay relative to control
[15] = molecular target: 5'-AMP-activated protein kinase catalytic subunit alpha-1 (Homo sapiens) (UniProt Q13131); assay: Inhibition of recombinant full length human AMPKalpha1 assessed as residual activity at 10 uM using AMARAASAAALAR as substrate incubated for 40 mins in presence of [gamma-33ATP] by scintillation counting based radiometry assay relative to control
Sequence of 5'-AMP-activated protein kinase catalytic subunit alpha-1 (Homo sapiens) (Q13131 whole entry, looked up): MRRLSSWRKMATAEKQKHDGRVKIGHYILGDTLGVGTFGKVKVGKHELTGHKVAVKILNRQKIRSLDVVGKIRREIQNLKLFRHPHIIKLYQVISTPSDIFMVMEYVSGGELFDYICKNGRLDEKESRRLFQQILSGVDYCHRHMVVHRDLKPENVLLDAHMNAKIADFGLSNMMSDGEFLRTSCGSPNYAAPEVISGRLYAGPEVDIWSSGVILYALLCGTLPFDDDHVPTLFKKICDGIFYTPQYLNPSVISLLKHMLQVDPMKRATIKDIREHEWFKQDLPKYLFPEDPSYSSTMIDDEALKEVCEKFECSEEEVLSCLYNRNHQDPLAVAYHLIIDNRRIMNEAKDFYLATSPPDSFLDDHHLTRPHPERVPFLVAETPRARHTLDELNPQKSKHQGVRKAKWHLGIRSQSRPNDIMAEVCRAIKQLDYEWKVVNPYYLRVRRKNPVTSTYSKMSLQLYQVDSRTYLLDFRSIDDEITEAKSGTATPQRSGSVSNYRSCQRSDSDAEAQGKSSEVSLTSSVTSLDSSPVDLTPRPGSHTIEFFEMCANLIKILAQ

[16] = molecular target: Tyrosine-protein kinase JAK3 (Homo sapiens) (UniProt P52333); assay: Inhibition of human JAK3 (781 to end residues) assessed as residual activity at 10 uM using GGEEEEYFELVKKKK as substrate after 40 mins by [gamma-33ATP] radiometric assay relative to control
Sequence of Tyrosine-protein kinase JAK3 (Homo sapiens) (P52333 whole entry, the tested form may be a part): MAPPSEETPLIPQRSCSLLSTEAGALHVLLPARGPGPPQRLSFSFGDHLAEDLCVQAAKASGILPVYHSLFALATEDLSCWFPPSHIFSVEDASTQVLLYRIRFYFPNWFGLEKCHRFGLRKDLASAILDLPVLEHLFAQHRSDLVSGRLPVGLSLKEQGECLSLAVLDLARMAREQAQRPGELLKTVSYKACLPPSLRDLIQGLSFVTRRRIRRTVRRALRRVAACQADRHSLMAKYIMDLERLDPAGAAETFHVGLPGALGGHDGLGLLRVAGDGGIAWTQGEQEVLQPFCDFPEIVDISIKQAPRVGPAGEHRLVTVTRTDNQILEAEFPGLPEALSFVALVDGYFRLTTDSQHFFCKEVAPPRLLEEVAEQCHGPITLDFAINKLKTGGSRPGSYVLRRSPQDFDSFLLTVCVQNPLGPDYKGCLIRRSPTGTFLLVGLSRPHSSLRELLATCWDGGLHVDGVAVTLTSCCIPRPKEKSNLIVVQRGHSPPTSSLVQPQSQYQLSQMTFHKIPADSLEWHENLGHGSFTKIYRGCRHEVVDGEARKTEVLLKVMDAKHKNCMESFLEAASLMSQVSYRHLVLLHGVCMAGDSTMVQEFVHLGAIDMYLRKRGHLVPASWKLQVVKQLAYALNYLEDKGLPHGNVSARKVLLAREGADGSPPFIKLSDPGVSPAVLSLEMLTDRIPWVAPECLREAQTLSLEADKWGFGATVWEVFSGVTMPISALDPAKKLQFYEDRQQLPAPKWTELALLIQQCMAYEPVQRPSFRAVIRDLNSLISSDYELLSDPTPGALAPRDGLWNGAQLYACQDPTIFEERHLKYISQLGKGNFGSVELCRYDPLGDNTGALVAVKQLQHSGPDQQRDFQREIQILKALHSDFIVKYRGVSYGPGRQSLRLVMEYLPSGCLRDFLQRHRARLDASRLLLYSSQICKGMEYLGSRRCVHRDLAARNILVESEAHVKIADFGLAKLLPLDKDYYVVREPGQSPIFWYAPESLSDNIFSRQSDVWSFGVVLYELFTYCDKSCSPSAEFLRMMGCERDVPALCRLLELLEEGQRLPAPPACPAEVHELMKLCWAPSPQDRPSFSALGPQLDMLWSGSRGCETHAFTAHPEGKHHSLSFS

[17] = system: Fibroblast growth factor receptor 2 (Homo sapiens), P21802 [N549H]; assay: Inhibition of recombinant human FGFR2 N549H mutant (456 to 765 residues) assessed as residual activity at 10 uM using KKKSPGEYVNIEF as substrate at 40 mins in presence of [gamma-33ATP] by scintillation counting based radiometry assay relative to control
[18] = molecular target: Calcium/calmodulin-dependent protein kinase type II subunit beta (Homo sapiens) (UniProt Q13554); assay: Inhibition of recombinant human CaMK2beta (1 to 315 residues) assessed as residual activity at 10 uM using […] incubated for 40 mins in presence of [gamma-33ATP] by scintillation counting based radiometry assay relative to control
[19] = molecular target: Death-associated protein kinase 1 (Homo sapiens) (UniProt P53355); assay: Inhibition of recombinant human DAPK1 (1 to 296 residues) assessed as residual activity at 10 uM KKLNRTLSFAEPG as substrate incubated 40 mins in presence of [gamma-33ATP] by scintillation counting based radiometry assay relative to control
[20] = molecular target: Testis-specific serine/threonine-protein kinase 3 (Homo sapiens) (UniProt Q96PN8); assay: Inhibition of recombinant full-length human TSSK3 assessed as residual activity at 10 uM using AMARAASAAALARRR as substrate incubated for 40 mins in presence of [gamma33P]ATP by scintillation counting based radiometry assay relative to control
Sequence of Testis-specific serine/threonine-protein kinase 3 (Homo sapiens) (Q96PN8 whole entry): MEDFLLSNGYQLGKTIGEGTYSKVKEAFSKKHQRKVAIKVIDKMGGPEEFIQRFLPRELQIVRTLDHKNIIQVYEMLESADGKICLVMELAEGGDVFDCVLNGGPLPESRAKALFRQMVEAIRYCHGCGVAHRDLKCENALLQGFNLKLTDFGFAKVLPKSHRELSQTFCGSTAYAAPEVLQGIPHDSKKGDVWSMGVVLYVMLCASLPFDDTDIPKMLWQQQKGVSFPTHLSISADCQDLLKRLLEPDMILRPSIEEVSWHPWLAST

[21] = molecular target: Cyclin-dependent kinase 14/Cyclin-Y (Homo sapiens) (UniProt O94921+Q8ND76); assay: Inhibition of recombinant full length human CDK14/cyclinY assessed as residual activity at 10 uM in presence of [gamma-33ATP] by scintillation counting based radiometry assay relative to control; type: protein-complex assay

Sequence of SNF-related serine/threonine-protein kinase (Homo sapiens), Q9NRH2 [UNDEFINED MUTATION] (Q9NRH2 whole entry, looked up, stated change not applied, the tested form may be a part): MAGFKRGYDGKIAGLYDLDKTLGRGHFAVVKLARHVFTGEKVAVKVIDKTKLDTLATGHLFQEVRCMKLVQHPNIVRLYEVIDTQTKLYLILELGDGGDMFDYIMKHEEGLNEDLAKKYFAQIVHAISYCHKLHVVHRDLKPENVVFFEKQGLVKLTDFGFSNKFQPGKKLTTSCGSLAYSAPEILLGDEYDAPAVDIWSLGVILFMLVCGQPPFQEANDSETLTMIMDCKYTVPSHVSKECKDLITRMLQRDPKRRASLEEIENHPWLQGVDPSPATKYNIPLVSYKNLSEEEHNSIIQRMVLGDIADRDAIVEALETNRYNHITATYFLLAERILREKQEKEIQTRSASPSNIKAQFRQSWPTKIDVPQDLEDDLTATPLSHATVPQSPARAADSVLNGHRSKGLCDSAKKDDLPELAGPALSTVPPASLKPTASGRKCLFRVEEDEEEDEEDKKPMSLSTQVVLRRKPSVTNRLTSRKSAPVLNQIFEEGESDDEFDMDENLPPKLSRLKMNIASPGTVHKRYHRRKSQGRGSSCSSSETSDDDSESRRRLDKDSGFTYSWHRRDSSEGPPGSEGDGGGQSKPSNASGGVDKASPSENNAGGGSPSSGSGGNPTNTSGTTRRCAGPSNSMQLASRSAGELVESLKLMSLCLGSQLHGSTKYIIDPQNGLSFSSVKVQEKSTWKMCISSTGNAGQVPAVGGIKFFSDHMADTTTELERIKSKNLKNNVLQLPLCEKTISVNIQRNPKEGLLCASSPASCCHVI

C[C@@H](c1ccccc1)n1nnc2cnc3ccc(-c4cnc5[nH]ccc5c4)cc3c21
Activity [1]: 76% | Activity [2]: 50% | Activity [3]: 22% | Activity [4]: 100% | Activity [5]: -4% | Activity [6]: 55% | Activity [7]: 80% | Activity [8]: 91% | Activity [9]: 60% | Activity [10]: 74% | Activity [11]: 63% | Activity [12]: 83% | Activity [13]: 75% | Activity [14]: 102% | Activity [15]: 45% | Activity [16]: 43% | Activity [17]: 27% | Activity [18]: 85% | Activity [19]: 84% | Activity [20]: 64% | Activity [21]: 92%
